# Data from US11883402B2, “Crystalline forms of a quinazoline compound and its hydrochloride salts” (Hanmi Pharmaceutical Co., Ltd., priority 2018, dated 2024).
# Legend:
# Type in all cases: physicochemical
# [1] = Behaviour under long-term, accelerated and harsh storage conditions (moisture absorption, stability of form)
# [2] = Dynamic vapor sorption (DVS) hygroscopicity; conditions: for Hygroscopic degree (DVS): 25° C.
# Protocol: Dynamic Vapor Sorption (DVS) analysis was conducted on the DVS advantage (Surface measurement system, United Kingdom) analyzer at 25° C. and relative humidity of 0-90%.
# 10 mg of sample was placed in the wire mesh steam sorption balance pan and attached to the DVS-advantage dynamic vapor adsorption balance by the Surface Measurement Systems. […] After the completion of the sorption cycle, the sample was dried using the same procedure, during which the relative humidity was returned to a relative humidity […] all the time. The change in weight during the sorption/desorption cycle (repetition of 3 times) was recorded to determine the hygroscopicity of the sample.
# [3] = Comparative test of stability (HPLC purity on storage) of amorphous form and crystalline polymorphs of the hydrochloride salt (Test Example 2); conditions: listed as HCl amorphous
# Protocol: High performance liquid chromatography (HPLC) was conducted on the Agilent 1100/1200 series HPLC Systems (Agilent, USA) analyzer for the purpose of purity and content analysis including stability test and the like. The analysis conditions of the HPLC are as follows.
# To compare the stability of amorphous hydrochloride salt form and crystalline hydrochloride salt polymorphs, each of samples of the polymorphs and amorphous form of the hydrochloride salt of the compound of chemical formula (1) prepared in Examples 4 to 6 was left for 4 weeks under long term conditions (e.g., temperature of 25±2° C. and relative humidity of 60±5%) and accelerated conditions (e.g., temperature of 40° C. and relative humidity of 75%). Each sample was analyzed by high performance liquid chromatography (HPLC) according to the purity measurement conditions of the compound of chemical formula (1).
# [4] = Comparative test of solubility of amorphous form and crystalline polymorphs of the hydrochloride salt (Test Example 1); conditions: 25° C., loading of 1.0 mg/mL, LOD 0.1 μg/mL, based on compound of formula (1), listed as HCl cryst. hydrate
# Protocol: To compare the solubility of amorphous hydrochloride salt form and crystalline hydrochloride salt polymorphs, each of the polymorphs and amorphous form of the hydrochloride salt of the compound of chemical formula (1) prepared in Examples 4 to 6 was used to prepare samples under the following conditions according to non-ionized water and acidity (pH). Thereafter, each solution was analyzed by high performance liquid chromatography (HPLC) according to the measurement conditions of the content of the compound of chemical formula (1) to measure the dissolved amount (LOD: 0.1 μg/mL) based on the compound of chemical formula (1).
# Specifically, 5 mg of each polymorph was added to 5 ml of water and mixed using a Voltamixer at 20-25° C. Thereafter, the filtrate obtained by filtrating using GH Polypro membrane Acrodisc, PALL (pore size 0.2 μm) was diluted with a dilution solvent for high performance liquid chromatography (HPLC) at a ratio of 1/100, to obtain the samples.
smiles,measurement,setting,value
"C=CC(=O)N1CCC(Oc2cc3c(Nc4ccc(Cl)c(Cl)c4F)ncnc3cc2OC)CC1 [Example 5, 1-(4-(4-(3,4-dichloro-2-fluorophenylamino)-7-methoxyquinazolin-6-yloxy)piperidin-1-yl)prop-2-en-1-one]",Moisture absorption on storage (in words),"[1]; long-term (25° C., 60% RH) and accelerated (40° C., 75% RH) conditions",did not absorb moisture
"C=CC(=O)N1CCC(Oc2cc3c(Nc4ccc(Cl)c(Cl)c4F)ncnc3cc2OC)CC1 [Example 2, 1-(4-(4-(3,4-dichloro-2-fluorophenylamino)-7-methoxyquinazolin-6-yloxy)piperidin-1-yl)prop-2-en-1-one]",Hygroscopic degree (DVS),[2]; relative humidity range of 10%-50%,0.3-0.5%
same,Hygroscopic degree (DVS),[2]; relative humidity range of 50-90%,about 3%
"C=CC(=O)N1CCC(Oc2cc3c(Nc4ccc(Cl)c(Cl)c4F)ncnc3cc2OC)CC1 [Example 6, 1-(4-(4-(3,4-dichloro-2-fluorophenylamino)-7-methoxyquinazolin-6-yloxy)piperidin-1-yl)prop-2-en-1-one]","Purity (HPLC, %) 3 days","[3]; 25 ± 2° C., 60 ± 5% RH",98.0%
same,"Purity (HPLC, %) Start","[3]; 25 ± 2° C., 60 ± 5% RH",98.0%
same,"Purity (HPLC, %) Week 1","[3]; 25 ± 2° C., 60 ± 5% RH",98.0%
same,"Purity (HPLC, %) Week 2","[3]; 25 ± 2° C., 60 ± 5% RH",97.9%
same,"Purity (HPLC, %) Week 4","[3]; 25 ± 2° C., 60 ± 5% RH",97.9%
same,"Purity (HPLC, %) 3 days","[3]; 40 ± 2° C., 75 ± 5% RH",97.9%
same,"Purity (HPLC, %) Start","[3]; 40 ± 2° C., 75 ± 5% RH",98.0%
same,"Purity (HPLC, %) Week 1","[3]; 40 ± 2° C., 75 ± 5% RH",97.9%
same,"Purity (HPLC, %) Week 2","[3]; 40 ± 2° C., 75 ± 5% RH",97.8%
same,"Purity (HPLC, %) Week 4","[3]; 40 ± 2° C., 75 ± 5% RH",97.6%
same,Moisture absorption on storage,"[1]; 25° C., 60% relative humidity and 40° C., 75% relative humidity",7-9%
same,"Hygroscopic degree (DVS), in words",[2]; relative humidity range of 10-90%,very high hygroscopic degree
"C=CC(=O)N1CCC(Oc2cc3c(Nc4ccc(Cl)c(Cl)c4F)ncnc3cc2OC)CC1 [Example 4, 1-(4-(4-(3,4-dichloro-2-fluorophenylamino)-7-methoxyquinazolin-6-yloxy)piperidin-1-yl)prop-2-en-1-one]","Solubility, Water",[4],<LOD
"C=CC(=O)N1CCC(Oc2cc3c(Nc4ccc(Cl)c(Cl)c4F)ncnc3cc2OC)CC1 [Example 3, 1-(4-(4-(3,4-dichloro-2-fluorophenylamino)-7-methoxyquinazolin-6-yloxy)piperidin-1-yl)prop-2-en-1-one]",Stability under storage conditions (in words),"[1]; long-term (25° C., 60% RH), accelerated (40° C., 75% RH) and harsh (60° C.) conditions",sufficiently stable
